Paper PMC5933261, “A phase 1 dose-escalation study of veliparib with bimonthly FOLFIRI in patients with advanced solid tumours” (British Journal of Cancer, 2018)

What was measured:
[1] = tested on: triple-negative breast cancer; parameters: method as in doi:10.1158/1538-7445.AM2015-CT325; details: veliparib in combination with irinotecan; cohort with germline BRCA mutation; cited from earlier work
[2] = tested on: patients with advanced solid tumours; assay: Treatment-emergent adverse events (NCI CTCAE version 4.0); type: in vivo, human
Text: The sample size was based on clinical justification.

[3] = veliparib plus FOLFIRI, Combined RP2D n = 31, all grades
[4] = veliparib plus FOLFIRI, Combined RP2D n = 31, grade 3/4
[5] = veliparib plus FOLFIRI, Part 1 n = 67, all grades
[6] = veliparib plus FOLFIRI, Part 1 n = 67, grade 3/4
[7] = veliparib plus FOLFIRI, Parts 2 and 3 n = 25, all grades
[8] = veliparib plus FOLFIRI, Parts 2 and 3 n = 25, grade 3/4
[9] = veliparib plus FOLFIRI, Total n = 92, all grades
[10] = veliparib plus FOLFIRI, Total n = 92, grade 3/4
[11] = veliparib plus FOLFIRI, all treated patients (92)
[12] = veliparib plus FOLFIRI, all treated patients (92), any grade

In the case of `C[C@]1(c2nc3c(C(N)=O)cccc3[nH]2)CCCN1` [veliparib, Veliparib], the Preliminary response rate [1] is given as 88%, the “Patients with TEAEs that led to death within 30 days of the last veliparib dose” value ([2]; considered not related or probably not related to veliparib and FOLFIRI) is given as “Four” and the “Patients with a TEAE that led to death within 63 days after the last veliparib dose” value ([2]; disease progression, considered not related or probably not related) is given as “One”. For the same molecule, the “TEAE Alopecia” value [2, 3] was 16 (51.6) n (%), the “TEAE Anaemia” value [2, 3] was 15 (48.3) n (%) and the “TEAE Constipation” value [2, 3] was 9 (29.0) n (%). The “TEAE Decreased appetite” value [2, 3] was 7 (22.5) n (%), the “TEAE Diarrhoea” value [2, 3] was 17 (54.8) n (%) and the “TEAE Fatigue” value [2, 3] was 13 (41.9) n (%). For the same molecule, the “TEAE Nausea” value [2, 3] was 23 (74.1) n (%), the “TEAE Neutropenia” value [2, 3] was 25 (80.6) n (%) and the “TEAE Vomiting” value [2, 3] was 14 (45.1) n (%). For the same molecule, the “TEAE Alopecia” value [2, 4] was 0 (0.0) n (%), the “TEAE Anaemia” value [2, 4] was 5 (16.1) n (%) and the “TEAE Constipation” value [2, 4] was 0 (0.0) n (%). For the same molecule, the “TEAE Decreased appetite” value [2, 4] was 0 (0.0) n (%), the “TEAE Diarrhoea” value [2, 4] was 5 (16.1) n (%) and the “TEAE Fatigue” value [2, 4] was 0 (0.0) n (%). The “TEAE Nausea” value [2, 4] was 1 (3.2) n (%), the “TEAE Neutropenia” value [2, 4] was 17 (54.8) n (%) and the “TEAE Vomiting” value [2, 4] was 1 (3.2) n (%). The “TEAE Alopecia” value [2, 5] was 31 (46.2) n (%), the “TEAE Anaemia” value [2, 5] was 27 (40.2) n (%) and the “TEAE Constipation” value [2, 5] was 18 (26.8) n (%). For the same molecule, the “TEAE Decreased appetite” value [2, 5] was 18 (26.8) n (%), the “TEAE Diarrhoea” value [2, 5] was 40 (59.7) n (%) and the “TEAE Fatigue” value [2, 5] was 27 (40.2) n (%). The “TEAE Nausea” value [2, 5] was 41 (61.1) n (%), the “TEAE Neutropenia” value [2, 5] was 41 (61.1) n (%) and the “TEAE Vomiting” value [2, 5] was 32 (47.7) n (%). For the same molecule, the “TEAE Alopecia” value [2, 6] was 0 (0.0) n (%), the “TEAE Anaemia” value [2, 6] was 7 (10.4) n (%) and the “TEAE Constipation” value [2, 6] was 1 (1.4) n (%). The “TEAE Decreased appetite” value [2, 6] was 0 (0.0) n (%), the “TEAE Diarrhoea” value [2, 6] was 5 (7.4) n (%) and the “TEAE Fatigue” value [2, 6] was 3 (4.4) n (%). For the same molecule, the “TEAE Nausea” value [2, 6] was 2 (2.9) n (%), the “TEAE Neutropenia” value [2, 6] was 26 (38.8) n (%) and the “TEAE Vomiting” value [2, 6] was 3 (4.4) n (%). The “TEAE Alopecia” value [2, 7] was 9 (36.0) n (%), the “TEAE Anaemia” value [2, 7] was 14 (56.0) n (%) and the “TEAE Constipation” value [2, 7] was 10 (40.0) n (%). The “TEAE Decreased appetite” value [2, 7] was 13 (52.0) n (%), the “TEAE Diarrhoea” value [2, 7] was 16 (64.0) n (%) and the “TEAE Fatigue” value [2, 7] was 17 (68.0) n (%). The “TEAE Nausea” value [2, 7] was 15 (60.0) n (%), the “TEAE Neutropenia” value [2, 7] was 20 (80.0) n (%) and the “TEAE Vomiting” value [2, 7] was 12 (48.0) n (%). The “TEAE Alopecia” value [2, 8] was 0 (0.0) n (%), the “TEAE Anaemia” value [2, 8] was 2 (8.0) n (%) and the “TEAE Constipation” value [2, 8] was 1 (4.0) n (%). The “TEAE Decreased appetite” value [2, 8] was 0 (0.0) n (%), the “TEAE Diarrhoea” value [2, 8] was 0 (0.0) n (%) and the “TEAE Fatigue” value [2, 8] was 0 (0.0) n (%). The “TEAE Nausea” value [2, 8] was 1 (4.0) n (%), the “TEAE Neutropenia” value [2, 8] was 13 (52.0) n (%) and the “TEAE Vomiting” value [2, 8] was 2 (8.0) n (%). The “TEAE Alopecia” value [2, 9] was 40 (43.5) n (%), the “TEAE Anaemia” value [2, 9] was 41 (44.6) n (%) and the “TEAE Constipation” value [2, 9] was 28 (30.4) n (%). For the same molecule, the “TEAE Decreased appetite” value [2, 9] was 31 (33.6) n (%), the “TEAE Diarrhoea” value [2, 9] was 56 (60.9) n (%) and the “TEAE Fatigue” value [2, 9] was 44 (47.8) n (%). The “TEAE Nausea” value [2, 9] was 56 (60.9) n (%), the “TEAE Neutropenia” value [2, 9] was 61 (66.3) n (%) and the “TEAE Vomiting” value [2, 9] was 44 (47.8) n (%). For the same molecule, the “TEAE Alopecia” value [2, 10] was 0 (0.0) n (%), the “TEAE Anaemia” value [2, 10] was 9 (9.8) n (%) and the “TEAE Decreased appetite” value [2, 10] was 0 (0.0) n (%). For the same molecule, the “TEAE Diarrhoea” value [2, 10] was 5 (5.4) n (%), the “TEAE Fatigue” value [2, 10] was 3 (3.2) n (%) and the “TEAE Nausea” value [2, 10] was 3 (3.2) n (%). For the same molecule, the “TEAE Neutropenia” value [2, 10] was 39 (42.4) n (%), the “TEAE Vomiting” value [2, 10] was 5 (5.4) n (%) and the “Grade 3 or 4 TEAE anaemia” value [2, 11] was 9.8%. For the same molecule, the “Grade 3 or 4 TEAE neutropenia” value [2, 11] was 42.4%, the “Patients who discontinued veliparib due to TEAEs” value [2, 11] was 5.4% and the “Patients with ≥1 grade 3 or 4 TEAEs” value [2, 11] was 67.4%. For the same molecule, the “Patients with ≥1 treatment-emergent serious AEs (SAEs)” value [2, 11] was 38.0%, the “Serious AE PD” value [2, 11] was 2.2% and the “Serious AE abdominal pain” value [2, 11] was 2.2%. For the same molecule, the “Serious AE dehydration” value [2, 11] was 2.2%, the “Serious AE febrile neutropenia” value [2, 11] was 2.2% and the “Serious AE intestinal obstruction” value [2, 11] was 2.2%. The “Serious AE malignant neoplasm progression” value [2, 11] was 2.2%, the “Serious AE nausea” value [2, 11] was 2.2% and the “Serious AE pyrexia” value [2, 11] was 4.3%. For the same molecule, the “Serious AE vomiting” value [2, 11] was 3.3%, the “TEAE alopecia, patients” value [2, 12] was 43.5% and the “TEAE anaemia, patients” value [2, 12] was 44.6%. The “TEAE diarrhoea, patients” value [2, 12] was 60.9%, the “TEAE fatigue, patients” value [2, 12] was 47.8% and the “TEAE nausea, patients” value [2, 12] was 60.9%. For the same molecule, the “TEAE neutropenia, patients” value [2, 12] was 66.3%, the “TEAE vomiting, patients” value [2, 12] was 47.8% and the “Patients who experienced one or more TEAEs” value ([2]; veliparib plus FOLFIRI, treated patients (92)) was “All treated patients”.
